Results reported in ChEMBL document CHEMBL1201862, “PubChem BioAssay data set” (2004).
The source made the active and inactive calls. For most assays here, no stated cut-off is given here; in the data, actives have a measured IC50 and inactives only a lower limit.

How the values were obtained:
Type in all cases: functional
[1] = M. tuberculosis H37Rv growth inhibitors, H37Rv strain (AID 1626)
[2] = molecular target: T1, Mitochondrial peptide methionine sulfoxide reductase (Bos taurus, UniProt P54149); experiment: Absorbance-based biochemical high throughput dose response assay for activators of Methionine sulfoxide reductase A (MsrA).
T1 sequence (P54149 whole entry): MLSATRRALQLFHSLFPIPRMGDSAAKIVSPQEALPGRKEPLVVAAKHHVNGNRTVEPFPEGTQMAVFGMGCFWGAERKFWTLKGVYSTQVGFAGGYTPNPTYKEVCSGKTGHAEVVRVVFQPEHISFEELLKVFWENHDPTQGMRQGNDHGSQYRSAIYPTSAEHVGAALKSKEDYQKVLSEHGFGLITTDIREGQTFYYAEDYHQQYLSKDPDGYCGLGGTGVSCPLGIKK

[3] = molecular target: Ras and Rab interactor 1/Tyrosine-protein kinase ABL1 (Homo sapiens, UniProt P00519+Q13671);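 further: biochemical TR-FRET dose-response test measuring inhibition of binding between Rin1 and Abl proteins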
Chain of Ras and Rab interactor 1/Tyrosine-protein kinase ABL1 (P00519 whole entry): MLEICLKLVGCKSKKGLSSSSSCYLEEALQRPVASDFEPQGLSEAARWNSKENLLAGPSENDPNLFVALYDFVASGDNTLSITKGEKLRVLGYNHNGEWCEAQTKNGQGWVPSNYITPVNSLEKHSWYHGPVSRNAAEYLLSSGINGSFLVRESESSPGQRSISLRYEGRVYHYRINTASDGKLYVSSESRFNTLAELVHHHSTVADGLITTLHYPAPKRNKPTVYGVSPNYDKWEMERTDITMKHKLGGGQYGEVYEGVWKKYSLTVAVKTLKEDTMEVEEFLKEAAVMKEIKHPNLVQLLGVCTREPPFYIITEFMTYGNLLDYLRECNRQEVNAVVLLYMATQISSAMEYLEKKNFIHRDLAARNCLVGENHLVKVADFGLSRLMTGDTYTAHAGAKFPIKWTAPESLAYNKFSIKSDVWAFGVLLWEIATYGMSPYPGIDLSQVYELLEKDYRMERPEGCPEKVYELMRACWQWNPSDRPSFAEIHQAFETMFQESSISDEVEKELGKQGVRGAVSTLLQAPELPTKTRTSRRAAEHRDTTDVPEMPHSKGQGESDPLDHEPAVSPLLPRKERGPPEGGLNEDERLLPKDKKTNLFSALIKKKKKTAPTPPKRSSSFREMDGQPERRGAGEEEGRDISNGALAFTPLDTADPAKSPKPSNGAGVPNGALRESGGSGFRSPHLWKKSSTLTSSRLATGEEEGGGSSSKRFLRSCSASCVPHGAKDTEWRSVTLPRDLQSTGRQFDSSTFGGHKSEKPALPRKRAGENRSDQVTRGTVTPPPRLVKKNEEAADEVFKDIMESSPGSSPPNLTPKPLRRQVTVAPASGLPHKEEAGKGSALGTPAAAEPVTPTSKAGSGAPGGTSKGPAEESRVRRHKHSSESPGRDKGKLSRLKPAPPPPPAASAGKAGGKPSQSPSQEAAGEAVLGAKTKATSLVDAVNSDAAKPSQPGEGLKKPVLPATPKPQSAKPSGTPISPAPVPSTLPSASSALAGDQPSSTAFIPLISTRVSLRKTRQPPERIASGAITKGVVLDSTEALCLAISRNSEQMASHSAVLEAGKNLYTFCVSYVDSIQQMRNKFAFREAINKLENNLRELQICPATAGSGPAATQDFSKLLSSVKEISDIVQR
Chain of Ras and Rab interactor 1/Tyrosine-protein kinase ABL1 (Q13671 whole entry): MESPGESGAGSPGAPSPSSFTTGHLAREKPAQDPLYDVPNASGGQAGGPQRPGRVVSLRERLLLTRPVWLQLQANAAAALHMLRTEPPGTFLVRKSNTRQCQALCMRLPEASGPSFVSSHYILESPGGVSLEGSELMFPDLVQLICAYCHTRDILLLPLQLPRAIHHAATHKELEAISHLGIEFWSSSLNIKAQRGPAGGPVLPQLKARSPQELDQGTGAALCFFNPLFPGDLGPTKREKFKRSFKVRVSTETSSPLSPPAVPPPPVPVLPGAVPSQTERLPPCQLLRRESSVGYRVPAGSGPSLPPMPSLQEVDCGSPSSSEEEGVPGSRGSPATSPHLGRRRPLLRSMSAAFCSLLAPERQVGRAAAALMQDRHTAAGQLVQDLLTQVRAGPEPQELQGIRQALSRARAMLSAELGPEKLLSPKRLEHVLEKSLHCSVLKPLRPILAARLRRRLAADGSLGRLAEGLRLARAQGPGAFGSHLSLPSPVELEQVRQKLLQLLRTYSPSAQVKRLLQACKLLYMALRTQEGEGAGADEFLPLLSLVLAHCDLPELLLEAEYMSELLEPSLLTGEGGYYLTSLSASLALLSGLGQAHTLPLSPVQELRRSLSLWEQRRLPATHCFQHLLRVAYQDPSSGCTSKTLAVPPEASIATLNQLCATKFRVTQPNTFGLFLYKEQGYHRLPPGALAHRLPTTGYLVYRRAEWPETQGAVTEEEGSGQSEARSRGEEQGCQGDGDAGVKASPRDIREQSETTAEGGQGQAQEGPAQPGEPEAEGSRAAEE

[4] = molecular target: T2, Sentrin-specific protease 6 (Homo sapiens, UniProt Q9GZR1); experiment: SAR Analysis of small molecule inhibitors of Sentrin-specific protease 6 (SENP6) using a Luminescent assay. [Related pubchem assays (depositor defined):AID2582, AID2599]
T2 sequence (Q9GZR1 whole entry): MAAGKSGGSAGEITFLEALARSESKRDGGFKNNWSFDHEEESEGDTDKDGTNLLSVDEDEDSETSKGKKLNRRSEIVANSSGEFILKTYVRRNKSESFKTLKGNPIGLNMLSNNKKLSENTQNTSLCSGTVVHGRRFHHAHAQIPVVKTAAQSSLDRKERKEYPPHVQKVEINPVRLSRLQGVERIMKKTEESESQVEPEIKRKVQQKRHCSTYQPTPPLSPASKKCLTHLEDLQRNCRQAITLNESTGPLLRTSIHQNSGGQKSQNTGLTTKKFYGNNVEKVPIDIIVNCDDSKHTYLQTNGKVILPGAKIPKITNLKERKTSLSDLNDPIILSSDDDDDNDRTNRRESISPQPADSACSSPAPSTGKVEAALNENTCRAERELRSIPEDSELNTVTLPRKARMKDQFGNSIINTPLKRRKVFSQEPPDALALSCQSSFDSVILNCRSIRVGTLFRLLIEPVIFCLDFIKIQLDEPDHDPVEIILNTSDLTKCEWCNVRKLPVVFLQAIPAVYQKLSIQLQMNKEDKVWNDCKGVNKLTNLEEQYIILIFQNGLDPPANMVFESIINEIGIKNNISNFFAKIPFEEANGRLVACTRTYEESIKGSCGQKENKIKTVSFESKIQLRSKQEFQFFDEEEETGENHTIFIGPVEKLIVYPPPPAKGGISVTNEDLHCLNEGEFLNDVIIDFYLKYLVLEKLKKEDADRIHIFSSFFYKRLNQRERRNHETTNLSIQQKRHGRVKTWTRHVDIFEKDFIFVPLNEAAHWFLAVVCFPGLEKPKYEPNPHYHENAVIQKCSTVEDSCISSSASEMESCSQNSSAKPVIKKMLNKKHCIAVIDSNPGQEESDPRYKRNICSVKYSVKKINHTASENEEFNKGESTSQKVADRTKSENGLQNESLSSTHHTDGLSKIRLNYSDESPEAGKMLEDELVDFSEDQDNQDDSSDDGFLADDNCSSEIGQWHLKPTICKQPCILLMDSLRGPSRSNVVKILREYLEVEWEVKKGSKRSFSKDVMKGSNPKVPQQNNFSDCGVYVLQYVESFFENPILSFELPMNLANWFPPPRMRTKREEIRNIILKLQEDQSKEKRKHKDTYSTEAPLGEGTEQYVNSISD

[5] = molecular target: T3, Sentrin-specific protease 7 (Homo sapiens, UniProt Q9BQF6); experiment: inhibition of human SENP7 cleavage activity – biochemical, luminescence, SAR follow-up (AID 504497)
T3 sequence (Q9BQF6 whole entry): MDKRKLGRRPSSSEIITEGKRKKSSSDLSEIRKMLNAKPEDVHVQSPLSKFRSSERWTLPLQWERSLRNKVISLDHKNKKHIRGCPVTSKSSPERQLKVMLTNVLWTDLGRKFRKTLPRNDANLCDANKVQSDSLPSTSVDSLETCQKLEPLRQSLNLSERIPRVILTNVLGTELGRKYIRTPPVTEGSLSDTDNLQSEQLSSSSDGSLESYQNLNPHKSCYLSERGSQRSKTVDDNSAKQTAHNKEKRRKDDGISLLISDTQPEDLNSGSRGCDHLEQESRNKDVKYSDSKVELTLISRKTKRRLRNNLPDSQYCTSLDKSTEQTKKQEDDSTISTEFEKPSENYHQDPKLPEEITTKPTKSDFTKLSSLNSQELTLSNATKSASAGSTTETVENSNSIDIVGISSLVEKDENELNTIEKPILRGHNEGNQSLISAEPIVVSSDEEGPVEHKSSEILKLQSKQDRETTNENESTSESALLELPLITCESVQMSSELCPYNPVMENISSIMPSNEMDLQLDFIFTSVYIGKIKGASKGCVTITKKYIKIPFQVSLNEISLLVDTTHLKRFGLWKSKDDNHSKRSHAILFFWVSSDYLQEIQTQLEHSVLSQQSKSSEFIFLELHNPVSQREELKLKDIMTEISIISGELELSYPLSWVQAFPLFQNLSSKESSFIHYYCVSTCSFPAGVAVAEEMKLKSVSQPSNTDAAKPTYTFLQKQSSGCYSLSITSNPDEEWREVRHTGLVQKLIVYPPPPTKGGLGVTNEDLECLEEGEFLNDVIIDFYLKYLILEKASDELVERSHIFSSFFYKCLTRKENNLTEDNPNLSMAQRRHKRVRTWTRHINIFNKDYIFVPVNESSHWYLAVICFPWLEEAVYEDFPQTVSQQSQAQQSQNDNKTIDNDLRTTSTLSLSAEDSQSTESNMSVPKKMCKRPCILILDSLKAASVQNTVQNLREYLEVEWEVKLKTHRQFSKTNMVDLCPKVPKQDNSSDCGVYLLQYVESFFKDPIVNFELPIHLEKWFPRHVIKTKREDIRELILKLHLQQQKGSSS

Caspase-3 [6] = molecular target: T4, Caspase-3 (Homo sapiens, UniProt P42574); experiment: SAR Analysis of small molecule inhibitors of Sentrin-specific proteases (SENPs) using a Caspase-3 Selectivity assay. [Related pubchem assays (depositor defined):AID2540, AID2599, AID434973, AID489001]
T4 sequence (P42574 whole entry): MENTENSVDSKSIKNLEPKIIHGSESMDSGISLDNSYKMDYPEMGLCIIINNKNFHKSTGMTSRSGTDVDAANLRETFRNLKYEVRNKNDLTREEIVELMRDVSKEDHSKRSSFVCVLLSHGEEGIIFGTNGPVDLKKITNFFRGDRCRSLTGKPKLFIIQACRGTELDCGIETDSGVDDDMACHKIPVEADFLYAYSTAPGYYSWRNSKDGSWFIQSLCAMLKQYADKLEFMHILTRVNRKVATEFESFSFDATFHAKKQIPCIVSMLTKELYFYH

[7] = molecular target: T5, Sentrin-specific protease 8 (Homo sapiens, UniProt Q96LD8); experiment: inhibition of human SENP8 cleavage activity – biochemical, luminescence, SAR follow-up (AID 504501)
T5 sequence (Q96LD8 whole entry): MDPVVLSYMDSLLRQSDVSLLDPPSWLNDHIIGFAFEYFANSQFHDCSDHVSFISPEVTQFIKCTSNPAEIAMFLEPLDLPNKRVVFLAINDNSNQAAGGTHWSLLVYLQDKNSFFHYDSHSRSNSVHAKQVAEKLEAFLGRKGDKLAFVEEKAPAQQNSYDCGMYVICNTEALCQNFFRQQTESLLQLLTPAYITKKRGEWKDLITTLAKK

Caspase-3 [8] = molecular target: T4, Caspase-3; experiment: inhibition of recombinant caspase-3 activity – biochemical, luminescence, set 2, selectivity assay for SENP protease inhibitor project, SAR follow-up (AID 588599)
[9] = molecular target: T3, Sentrin-specific protease 7; experiment: inhibition of human SENP7 cleavage activity – biochemical, luminescence, set 2, SAR follow-up (AID 588600)
[10] = molecular target: T5, Sentrin-specific protease 8; experiment: inhibition of sentrin protease 8 – biochemical, luminescence, set 2, SAR follow-up (AID 588601)
[11] = molecular target: T2, Sentrin-specific protease 6; experiment: inhibition of human SENP6 catalytic domain – biochemical, luminescence, set 2, SAR follow-up (AID 588598)
[12] = molecular target: T6, Apoptotic protease-activating factor 1 (Homo sapiens, UniProt O14727); experiment: SAR analysis of small molecule Activators of Apaf-1 in a Fluorescent assay.; settings: read-out: EC50_Mean;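 further: caspase-3 cleavage of fluorogenic Rh110 DEVD substrate downstream of apoptosome activation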
T6 sequence (O14727 whole entry): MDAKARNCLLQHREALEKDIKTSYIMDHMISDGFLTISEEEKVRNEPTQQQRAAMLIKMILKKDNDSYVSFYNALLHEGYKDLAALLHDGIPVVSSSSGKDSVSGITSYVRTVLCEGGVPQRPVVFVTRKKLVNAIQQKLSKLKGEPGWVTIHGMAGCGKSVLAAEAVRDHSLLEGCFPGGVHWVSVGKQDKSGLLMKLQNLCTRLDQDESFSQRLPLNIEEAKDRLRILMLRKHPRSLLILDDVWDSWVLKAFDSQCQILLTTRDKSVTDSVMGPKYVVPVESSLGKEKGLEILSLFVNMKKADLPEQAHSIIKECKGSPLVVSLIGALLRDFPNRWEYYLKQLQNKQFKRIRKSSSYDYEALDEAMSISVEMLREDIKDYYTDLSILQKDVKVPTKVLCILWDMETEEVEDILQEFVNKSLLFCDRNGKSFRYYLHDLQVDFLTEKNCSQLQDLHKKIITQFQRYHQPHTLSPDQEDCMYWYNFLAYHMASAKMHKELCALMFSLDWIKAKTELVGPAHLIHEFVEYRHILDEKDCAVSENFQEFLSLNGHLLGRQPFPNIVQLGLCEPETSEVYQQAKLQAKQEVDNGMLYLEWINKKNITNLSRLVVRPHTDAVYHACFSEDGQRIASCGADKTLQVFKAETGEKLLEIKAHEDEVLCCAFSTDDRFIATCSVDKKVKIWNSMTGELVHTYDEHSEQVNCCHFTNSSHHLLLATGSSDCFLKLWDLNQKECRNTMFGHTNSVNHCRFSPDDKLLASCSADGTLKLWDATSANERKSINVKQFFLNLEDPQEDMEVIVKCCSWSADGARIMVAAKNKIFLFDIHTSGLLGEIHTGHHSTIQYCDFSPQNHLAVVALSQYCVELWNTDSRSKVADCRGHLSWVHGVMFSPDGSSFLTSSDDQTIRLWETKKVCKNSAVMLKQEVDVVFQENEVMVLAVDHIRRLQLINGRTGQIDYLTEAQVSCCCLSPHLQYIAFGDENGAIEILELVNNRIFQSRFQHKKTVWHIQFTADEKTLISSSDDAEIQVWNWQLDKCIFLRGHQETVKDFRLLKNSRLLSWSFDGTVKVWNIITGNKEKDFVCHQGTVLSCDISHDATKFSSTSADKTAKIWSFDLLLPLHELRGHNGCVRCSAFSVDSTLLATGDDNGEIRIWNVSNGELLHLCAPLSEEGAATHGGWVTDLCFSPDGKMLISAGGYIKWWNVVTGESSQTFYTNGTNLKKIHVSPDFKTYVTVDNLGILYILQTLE

Aurora kinase B = Aurora kinase B (Homo sapiens, UniProt Q96GD4)
Chain of Aurora kinase B (Q96GD4 whole entry): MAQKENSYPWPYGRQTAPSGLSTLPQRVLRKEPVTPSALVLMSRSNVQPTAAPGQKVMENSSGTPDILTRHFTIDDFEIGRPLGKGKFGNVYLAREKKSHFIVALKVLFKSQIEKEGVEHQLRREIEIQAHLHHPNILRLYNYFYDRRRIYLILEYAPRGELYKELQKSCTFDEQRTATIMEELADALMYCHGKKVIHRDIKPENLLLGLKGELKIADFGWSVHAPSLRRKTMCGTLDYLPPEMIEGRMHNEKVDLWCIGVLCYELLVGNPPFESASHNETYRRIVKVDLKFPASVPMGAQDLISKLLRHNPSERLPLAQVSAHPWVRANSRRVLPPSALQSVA

[13] = molecular target: Vascular endothelial growth factor receptor 2 (Homo sapiens, UniProt P35968)
Chain of Vascular endothelial growth factor receptor 2 (P35968 whole entry): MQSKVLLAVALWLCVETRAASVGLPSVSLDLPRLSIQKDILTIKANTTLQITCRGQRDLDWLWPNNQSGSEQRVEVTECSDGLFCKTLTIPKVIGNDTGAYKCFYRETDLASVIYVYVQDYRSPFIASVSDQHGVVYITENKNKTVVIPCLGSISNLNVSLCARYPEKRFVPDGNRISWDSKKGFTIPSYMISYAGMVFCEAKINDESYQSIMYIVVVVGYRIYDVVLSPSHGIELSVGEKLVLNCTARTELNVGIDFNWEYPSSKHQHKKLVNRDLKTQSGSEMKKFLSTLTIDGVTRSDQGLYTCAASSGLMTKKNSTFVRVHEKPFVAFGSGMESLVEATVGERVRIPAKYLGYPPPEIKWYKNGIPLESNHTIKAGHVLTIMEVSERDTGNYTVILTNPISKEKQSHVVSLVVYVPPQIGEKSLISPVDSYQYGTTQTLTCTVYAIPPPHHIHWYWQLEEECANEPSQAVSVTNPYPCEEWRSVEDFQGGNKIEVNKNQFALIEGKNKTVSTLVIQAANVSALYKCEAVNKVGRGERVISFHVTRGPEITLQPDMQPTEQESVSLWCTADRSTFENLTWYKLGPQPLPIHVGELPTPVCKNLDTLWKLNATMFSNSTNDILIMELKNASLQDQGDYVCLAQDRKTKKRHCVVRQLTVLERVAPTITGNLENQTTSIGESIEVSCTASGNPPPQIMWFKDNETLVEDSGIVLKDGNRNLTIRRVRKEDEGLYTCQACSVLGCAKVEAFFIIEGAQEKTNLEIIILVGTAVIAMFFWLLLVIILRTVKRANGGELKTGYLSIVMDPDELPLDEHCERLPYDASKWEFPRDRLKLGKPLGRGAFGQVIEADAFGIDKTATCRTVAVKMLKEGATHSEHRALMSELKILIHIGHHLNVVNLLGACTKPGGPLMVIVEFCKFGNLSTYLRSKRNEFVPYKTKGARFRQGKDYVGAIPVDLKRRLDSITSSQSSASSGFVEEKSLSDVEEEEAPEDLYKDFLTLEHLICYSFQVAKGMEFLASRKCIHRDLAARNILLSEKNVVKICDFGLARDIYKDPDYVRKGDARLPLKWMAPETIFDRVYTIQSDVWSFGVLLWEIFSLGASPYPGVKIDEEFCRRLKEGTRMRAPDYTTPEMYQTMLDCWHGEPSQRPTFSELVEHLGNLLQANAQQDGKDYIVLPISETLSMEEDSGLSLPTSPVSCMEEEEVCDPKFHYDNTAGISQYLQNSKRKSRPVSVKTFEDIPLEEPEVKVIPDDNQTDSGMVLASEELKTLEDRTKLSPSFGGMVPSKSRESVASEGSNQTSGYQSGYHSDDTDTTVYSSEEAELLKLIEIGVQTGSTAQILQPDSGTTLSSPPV

Aurora kinase A = molecular target: T7, Aurora kinase A (Homo sapiens, UniProt O14965);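 further: value from the Navigating the Kinome kinase panel profiling, panel entry STK6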
T7 sequence (O14965 whole entry): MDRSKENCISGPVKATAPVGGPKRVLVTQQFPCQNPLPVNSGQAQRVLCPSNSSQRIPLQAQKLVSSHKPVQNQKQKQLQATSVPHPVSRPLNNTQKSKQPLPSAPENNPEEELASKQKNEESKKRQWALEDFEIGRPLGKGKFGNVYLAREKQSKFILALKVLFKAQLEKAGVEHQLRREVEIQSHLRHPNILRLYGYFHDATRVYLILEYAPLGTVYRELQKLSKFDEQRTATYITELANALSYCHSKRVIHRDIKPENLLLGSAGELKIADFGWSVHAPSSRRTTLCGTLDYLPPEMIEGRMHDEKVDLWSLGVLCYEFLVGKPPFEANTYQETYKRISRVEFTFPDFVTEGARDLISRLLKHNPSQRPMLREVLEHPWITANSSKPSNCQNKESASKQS

SMILES: CCOc1ccc(NC(C(=O)Nc2cccc(C(C)=O)c2)c2ccccc2)cc1 (stereo not drawn)
- IC50 [1]: > 100 µM (active)
- EC50 [2]: > 104 µM (inactive)

SMILES: CCC(C)(C)n1nnnc1C(c1cccnc1)N1CCCc2ccccc21 (stereo not drawn)
- IC50 [3]: 6.9 µM (active)

SMILES: CN(C)S(=O)(=O)c1ccc2nc(NC(=O)c3c(F)cccc3F)sc2c1
- IC50 [4]: > 99 µM (inactive)
- IC50 [5]: > 99 µM (inactive)
- IC50 (Caspase-3 [6]): > 99 µM (inactive)
- IC50 [7]: > 99 µM (inactive)

SMILES: O=C(Nc1nc2ccc(Cl)cc2s1)c1sccc1Cl
- IC50 (Caspase-3 [8]): 0.755 µM (active)
- IC50 [4]: 0.78 µM (active)
- IC50 [9]: 6.06 µM (active)
- IC50 [5]: 0.91 µM (active)
- IC50 (Caspase-3 [6]): 0.73 µM (active)
- IC50 [7]: 0.77 µM (active)
- IC50 [10]: 9.04 µM (active)
- IC50 [11]: 15.4 µM (active)

SMILES: O=C(N/N=C\c1c[nH]c2ccccc12)c1cccs1
- IC50 (Caspase-3 [8]): 75.5 µM (active)
- IC50 [9]: 34.4 µM (active)
- IC50 [10]: 40.8 µM (active)
- IC50 [11]: 43.3 µM (active)

SMILES: COc1cc(N2CC(C(=O)O)CC2=O)c(OC)cc1Cl (stereo not drawn)
- EC50 [12]: > 100 µM (inactive)

SMILES: CCCS(=O)(=O)Nc1ccc2c(c1)C(=NO)c1ccccc1-2
- Ki (Aurora kinase B): 10 nM (active)
- Ki [13]: 1 µM (active)
- Ki (Aurora kinase A): 2 µM (active)
